Source: PMC8012596, “Hypouricemic agents reduce indoxyl sulfate excretion by inhibiting the renal transporters OAT1/3 and ABCG2” (Scientific Reports, 2021)
Where a name gives a salt, the structure may show the parent alone. Read-outs that look alike come from different tables or passages of the source.

Tests used:
[1] = test system: intact rats; assay: Effect of hypouricemic agents on pharmacokinetics of intravenously administered d4-IS in intact rats; format: in vivo, Wistar rats; parameters: concentration or dose not given beside the values
[2] = test system: adenine-induced acute renal failure rats; assay: Effect of hypouricemic agents on pharmacokinetics of d4-IS in adenine-induced acute renal failure rats; format: in vivo, Wistar rats; settings: in words
Experimental: Wistar rats were orally administered 600 mg/kg of adenine, once daily for 5 days. One week after the last administration, urine samples were collected for 4 h. Furthermore, blood samples were obtained from the jugular vein under the isoflurane anesthesia. […] Creatinine level in the plasma and urine was measured using the U-3900 spectrophotometer (Hitachi High-Tech Science Corp., Tokyo, Japan) with the L-type Wako Creatinine F kit (Wako Pure Chemical Industries, Ltd., Osaka, Japan). Creatinine clearance (CLCRE) was calculated using the following equation: CLCRE = [urine creatinine level (mg/dl) × urine volume (ml/min)] / plasma creatinine level (mg/dl) / body weight (kg). […] Four days later, the rats were selected based on the weight and serum creatinine level, and used in the study. In the intact group, the rats were used 4 days after the urine and blood sampling.

[3] = Plasma concentration of hypouricemic agents in intact and adenine-induced acute renal failure rats; format: in vivo, Wistar rats; settings: Supplemental Fig. 2; in words
Experimental: Supplemental Fig. 1 Full-length blots/gels of renal expression of OAT1 (A/D), OAT3 (B/E), and ABCG2 (C/F) protein in intact and adenine-induced acute renal failure rats The chemiluminescence in blots and the proteins in gels were detected using ChemiDoc XRS Plus (Bio-Rad Laboratories, Inc.).
Supplemental Fig. 2 Plasma concentration of hypouricemic agents in intact rats and adenine-induced acute renal failure rats
Plasma drug concentration was measured using the same samples for measuring endogenous IS and d4-IS. Plasma samples were deproteinated with thrice volume of methanol and centrifuged at 1,000 × g for 10 min at 4°C. Drug concentrations were measured using the Alliance 2695 HPLC system (Waters Corporation. Milford, MA).

[4] = parameters: method as in Pharmaceuticals and Medical Devices Agency; settings: ref Pharmaceuticals and Medical Devices Agency, read-out: Cmax at clinical dose, cited from earlier work
[5] = parameters: method as in Pharmaceuticals and Medical Devices Agency; settings: ref Pharmaceuticals and Medical Devices Agency; cited from earlier work
[6] = test system: intact rats; assay: Effect of hypouricemic agents on endogenous IS pharmacokinetics in intact rats; settings: for Kidney IS concentration compared with control: endogenous IS, at 4 h; for Effect on plasma concentration of endogenous IS: in words
Experimental: Thirty minutes after drug administration, 0.3 mg/kg d^4-IS dissolved in saline was intravenously administered via the tail vein to all rats. Blood samples were obtained from the jugular vein at 0.083, 0.25, 0.5, 1, 2, and 4 h after d^4-IS administration using a heparinized needle and kept on ice, and then the kidney was isolated with the rats under isoflurane anesthesia. Plasma was obtained by centrifuging the blood samples at 1000 × g for 10 min at 4 °C. To prepare the kidney sample, 4-times volume of saline was added to the sample and homogenized.
Endogenous IS and d^4-IS were determined in these samples as previously described with slightly modifications[10]. Briefly, the plasma and kidney homogenates were deproteinized using the internal standard containing methanol. These samples were measured using a liquid chromatography-tandem mass spectrometry (LC–MS/MS) systems consisting of a Nexera X2 and a Prominence instrument (Shimadzu Corp., Kyoto, Japan) coupled with QTRAP4500 (AB SCIEX, LLC., Framingham, MA). Pharmacokinetic parameters (AUC0-4 hr, C0, V0, T1/2, and CLtot) were analyzed using the Phoenix WinNonlin 6.4 software (Certara, L.P., Princeton, NJ). Some pharmacokinetic parameters were calculated using the following equations, in which "IS" means endogenous IS or d^4-IS. CLR, plasma = (urine IS concentration × urine volume) / AUC0-4 hr. CLR, kidney = (urine IS concentration × urine volume) / (kidney IS concentration at 4 h × 4). Kp = kidney IS concentration at 4 h / plasma IS concentration at 4 h.

[7] = parameters: method as in PMID 29016645; settings: in humans; cited from earlier work

SMILES | Decrease of CLR, plasma of d4-IS compared with control [1] | Decrease of CLtot of d4-IS compared with control [1] | Effect on plasma concentration of d4-IS [2] | Plasma concentrations of the drugs in adenine-induced acute renal failure rats versus intact rats [3] | Cmax ([4]; mean concentration of q.i.d. administration, at a dose of 2 g, for 4 weeks) | fu (unbound fraction rate) [5] | Decrease of CLR, plasma of endogenous IS compared with control [6] | Increase of AUC0-4 hr of endogenous IS compared with control [6] | Kidney IS concentration compared with control [6] | Effect on plasma concentration of endogenous IS [6] | Decrease of CLR, kidney of d4-IS compared with control [1] | Decrease of CLR, kidney of endogenous IS compared with control [6] | Cmax ([4]; Cmax of q.d. administration, at a dose of 4 mg, for 1 weeks) | plasma protein binding ratio [7]
CCCN(CCC)S(=O)(=O)c1ccc(C(=O)O)cc1 [Probenecid] | 78% | 80% | moderate but significant increase | not lower than those in intact rats | 79 µM | 0.11 | 73% | 244% | 1.7 times | significantly increased | – | – | – | –
Cc1nc(-c2ccc(OCC(C)C)c(C#N)c2)sc1C(=O)O [Febuxostat] | 35% | 44% | – | not lower than those in intact rats | – | – | 39% | 85% | 15.1 times | significantly increased | 94% | 93% | – | –
O=C(c1cc(Cl)c(O)c(Cl)c1)N1CS(=O)(=O)c2ccccc21 [Dotinurad] | – | – | did not have any effect | – | – | 0.007 | – | – | – | did not have any effects | – | – | 1.2 µM | –
CCc1oc2ccccc2c1C(=O)c1cc(Br)c(O)c(Br)c1 [Benzbromarone] | 43% | 34% | – | not lower than those in intact rats | – | – | – | – | – | did not have any effects | – | – | – | –
O=S(=O)(O)Oc1c[nH]c2ccccc12 [IS, Indoxyl sulfate] | – | – | – | – | – | – | – | – | – | – | – | – | – | 93%
